Starred links: 1 amine or outer side, 2 acyl side, 3 side chain; linkers in the order of their positions; H or OH if unused. Positions of bridges follow the written chain, without caps; N, C: chain ends. Non-standard residues stand in square brackets, D forms with d. Residues, ends and D or L forms follow the SMILES beside them. *: point of attachment. hPhe(3-Cl-4-CF3) = N[C@@H](CCc1ccc(C(F)(F)F)c(Cl)c1)C(=O)O; NMePhe(4-CF3) = CN[C@@H](Cc1ccc(C(F)(F)F)cc1)C(=O)O; 3Oxa8azabicyclo(3.2.1)octane = C1CC2COCC1N2*; NMePhe(4-Me) = CN[C@@H](Cc1ccc(C)cc1)C(=O)O; X11 = CN([C@@H](CCc1cccnc1)C(=O)[*:2])[*:1]; X3 = CN([C@@H](CCc1ccncc1)C(=O)[*:2])[*:1]; NMeAla(cPent) = CN[C@@H](CC1CCCC1)C(=O)O; NMeNva(5,5-F2) = CN[C@@H](CCC(F)F)C(=O)O; NMeGly(cPent) = CN[C@H](C(=O)O)C1CCCC1; NMeCha = CN[C@@H](CC1CCCCC1)C(=O)O; NMeChg = CN[C@H](C(=O)O)C1CCCCC1; Gly(cBu) = N[C@H](C(=O)O)C1CCC1; NMeD = CN[C@@H](CC(=O)O)C(=O)O; NMeL = CN[C@@H](CC(C)C)C(=O)O; NMeNva = CCC[C@H](NC)C(=O)O; NMeAbu = CC[C@H](NC)C(=O)O; NMeS = CN[C@@H](CO)C(=O)O; Morpholide = C1CN(*)CCO1; NMeA = CN[C@@H](C)C(=O)O; Pyrrolidide = C1CCN(*)C1; Ac5c = NC1(C(=O)O)CCCC1; Aze = O=C(O)[C@@H]1CCN1; Sar = CNCC(=O)O; Propyl = CCC*
Tests used:
[1] = test system: Human pancreatic cancer cell line AsPC-1; experiment: Measurement of AsPC-1 cell growth inhibition (AsPC-1 CGI); assay type: cell-based; conditions: 96 h
How it was run: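 AsPC-1 cells in 15% FBS RPMI-1640 were exposed to test compound for 96 hours at 37° C, with CellTiter-Glo as endpoint.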

[2] = molecular target: T1, Kras and SOS1 (biotin-tagged human Kras loaded with GDP, His-tagged human SOS1) (Homo sapiens, UniProt P01116, G12D); experiment: Protein-protein interaction inhibition between Kras and SOS1 (KrasGl2D-SOS PPI) using AlphaScreen; assay type: binding; conditions: AlphaScreen; biotin-tagged human Kras loaded with GDP, His-tagged human SOS1; read-out: KRAS G12D-SOS PPI IC50
T1 construct: made in house; host or cells: E. coli (stated for Kras only)
How it was run: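 Kras was produced in E. coli, purified, then loaded with GDP. It was paired via streptavidin acceptor beads with His-SOS1 held on nickel donor beads, and proximity signal at 520-620 nm was read after 680 nm illumination.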

T1 sequence (P01116 1-188 isoform P01116-2 G12D): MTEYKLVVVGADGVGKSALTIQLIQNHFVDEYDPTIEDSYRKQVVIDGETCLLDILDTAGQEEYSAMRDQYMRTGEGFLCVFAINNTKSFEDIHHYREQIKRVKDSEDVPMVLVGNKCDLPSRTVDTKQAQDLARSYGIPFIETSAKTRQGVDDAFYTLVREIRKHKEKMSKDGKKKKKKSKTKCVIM

Row | SMILES | IC50 [1] | IC50 [2]
1 | CCC[C@H]1C(=O)N[C@@H]([C@@H](C)CC)C(=O)N(C)CC(=O)N(C)CC(=O)N(C)[C@@H](Cc2ccc(C)cc2)C(=O)N(C)CC(=O)N[C@@H](CCc2ccc(C(F)(F)F)c(Cl)c2)C(=O)N2CCC[C@H]2C(=O)NC2(CCCC2)C(=O)N(C)[C@@H](C2CCCCC2)C(=O)N(C)[C@H](C(=O)N2CCOCC2)CC(=O)N1C [Compound 1871] ([NMeNva]I[Sar][Sar][NMePhe(4-Me)][Sar][hPhe(3-Cl-4-CF3)]P[Ac5c][NMeChg][NMeD]-Morpholide; lactam N-11) | 20 to 50 nM | 0.48 nM
2 | CC[C@H](C)[C@@H]1NC(=O)[C@H](CC(C)C)N(C)C(=O)C[C@@H](C(=O)N2CCOCC2)N(C)C(=O)[C@H](C2CCCCC2)N(C)C(=O)C2(CCCC2)NC(=O)[C@@H]2CCCN2C(=O)[C@H](CCc2ccc(C(F)(F)F)c(Cl)c2)NC(=O)CN(C)C(=O)[C@H](Cc2ccc(C)cc2)N(C)C(=O)CN(C)C(=O)CN(C)C1=O [Compound 1872] ([NMeL]I[Sar][Sar][NMePhe(4-Me)][Sar][hPhe(3-Cl-4-CF3)]P[Ac5c][NMeChg][NMeD]-Morpholide; lactam N-11) | 20 to 50 nM | 0.65 nM
3 | CC[C@H](C)[C@@H]1NC(=O)[C@H](CC)N(C)C(=O)C[C@@H](C(=O)N2C3CCC2COC3)N(C)C(=O)[C@H](C2CCCCC2)N(C)C(=O)C2(CCCC2)NC(=O)[C@@H]2CCCN2C(=O)[C@H](CCc2ccc(C(F)(F)F)c(Cl)c2)NC(=O)CN(C)C(=O)[C@H](CC2CCCC2)N(C)C(=O)CN(C)C(=O)CN(C)C1=O [Compound 1877] ([NMeAbu]I[Sar][Sar][NMeAla(cPent)][Sar][hPhe(3-Cl-4-CF3)]P[Ac5c][NMeChg][NMeD]-{3Oxa8azabicyclo(3.2.1)octane}; lactam N-11) | 100 to 500 nM | 0.86 nM
4 | CC(C)C[C@H]1C(=O)N[C@@H](C2CCC2)C(=O)N(C)CC(=O)N(C)CC(=O)N(C)[C@@H](CC2CCCCC2)C(=O)N(C)CC(=O)N[C@@H](CCc2ccc(C(F)(F)F)c(Cl)c2)C(=O)N2CCC[C@H]2C(=O)NC2(CCCC2)C(=O)N(C)[C@@H](C2CCCCC2)C(=O)N(C)[C@H](C(=O)N2C3CCC2COC3)CC(=O)N1C [Compound 1879] ([NMeL][Gly(cBu)][Sar][Sar][NMeCha][Sar][hPhe(3-Cl-4-CF3)]P[Ac5c][NMeChg][NMeD]-{3Oxa8azabicyclo(3.2.1)octane}; lactam N-11) | 50 to 100 nM | 0.66 nM
5 | CC[C@H](C)[C@@H]1NC(=O)[C@H](CC(C)C)N(C)C(=O)C[C@@H](C(=O)N(C)C)N(C)C(=O)[C@H](C2CCCC2)N(C)C(=O)C2(CCCC2)NC(=O)[C@H](CCc2ccncc2)N(C)C(=O)[C@H](CCc2ccc(C(F)(F)F)c(Cl)c2)NC(=O)CN(C)C(=O)[C@H](CC2CCCCC2)N(C)C(=O)[C@@H]2CCN2C(=O)[C@H](C)N(C)C1=O [Compound 1881] ([NMeL]I[NMeA][Aze][NMeCha][Sar][hPhe(3-Cl-4-CF3)][X3][Ac5c][NMeGly(cPent)][NMeD]-NMe2; lactam N-11) | 50 to 100 nM | 1.4 nM
6 | CC[C@H](C)[C@@H]1NC(=O)[C@H](CC)N(C)C(=O)C[C@@H](C(=O)N2CCOCC2)N(C)C(=O)[C@H](C2CCCCC2)N(C)C(=O)C2(CCCC2)NC(=O)[C@@H]2CCCN2C(=O)[C@H](CCc2ccc(C(F)(F)F)c(Cl)c2)NC(=O)CN(C)C(=O)[C@H](Cc2ccc(C(F)(F)F)cc2)N(C)C(=O)CN(C)C(=O)CN(C)C1=O [Compound 1884] ([NMeAbu]I[Sar][Sar][NMePhe(4-CF3)][Sar][hPhe(3-Cl-4-CF3)]P[Ac5c][NMeChg][NMeD]-Morpholide; lactam N-11) | 20 to 50 nM | 0.41 nM
7 | CC[C@H](C)[C@@H]1NC(=O)[C@H](CC)N(C)C(=O)C[C@@H](C(=O)N2CCCC2)N(C)C(=O)[C@H](C2CCCCC2)N(C)C(=O)C2(CCCC2)NC(=O)[C@@H]2CCCN2C(=O)[C@H](CCc2ccc(C(F)(F)F)c(Cl)c2)NC(=O)CN(C)C(=O)[C@H](Cc2ccc(C(F)(F)F)cc2)N(C)C(=O)CN(C)C(=O)CN(C)C1=O [Compound 1890] ([NMeAbu]I[Sar][Sar][NMePhe(4-CF3)][Sar][hPhe(3-Cl-4-CF3)]P[Ac5c][NMeChg][NMeD]-Pyrrolidide; lactam N-11) | 20 to 50 nM | 0.55 nM
8 | CC[C@H](C)[C@@H]1NC(=O)[C@H](CC(C)C)N(C)C(=O)C[C@@H](C(=O)N(C)C)N(C)C(=O)[C@H](C2CCCC2)N(C)C(=O)C2(CCCC2)NC(=O)[C@H](CCc2cccnc2)N(C)C(=O)[C@H](CCc2ccc(C(F)(F)F)c(Cl)c2)NC(=O)CN(C)C(=O)[C@H](CC2CCCCC2)N(C)C(=O)[C@@H]2CCN2C(=O)[C@H](C)N(C)C1=O [Compound 1892] ([NMeL]I[NMeA][Aze][NMeCha][Sar][hPhe(3-Cl-4-CF3)][X11][Ac5c][NMeGly(cPent)][NMeD]-NMe2; lactam N-11) | 50 to 100 nM | 1.5 nM
9 | CCCOC[C@H]1C(=O)N(C)CC(=O)N[C@@H](CCc2ccc(C(F)(F)F)c(Cl)c2)C(=O)N2CCC[C@H]2C(=O)NC2(CCCC2)C(=O)N(C)[C@@H](C2CCCCC2)C(=O)N(C)[C@H](C(=O)N2CCOCC2)CC(=O)N(C)[C@@H](CC)C(=O)N[C@@H]([C@@H](C)CC)C(=O)N(C)CC(=O)N(C)CC(=O)N1C [Compound 1896] ([NMeAbu]I[Sar][Sar][NMeS](Propyl)[Sar][hPhe(3-Cl-4-CF3)]P[Ac5c][NMeChg][NMeD]-Morpholide; lactam N-11) | 100 to 500 nM | 0.49 nM
10 | CCCOC[C@H]1C(=O)N(C)CC(=O)N[C@@H](CCc2ccc(C(F)(F)F)c(Cl)c2)C(=O)N2CCC[C@H]2C(=O)NC2(CCCC2)C(=O)N(C)[C@@H](C2CCCCC2)C(=O)N(C)[C@H](C(=O)N2C3CCC2COC3)CC(=O)N(C)[C@@H](CC(C)C)C(=O)N[C@@H]([C@@H](C)CC)C(=O)N(C)CC(=O)N(C)CC(=O)N1C [Compound 1900] ([NMeL]I[Sar][Sar][NMeS](Propyl)[Sar][hPhe(3-Cl-4-CF3)]P[Ac5c][NMeChg][NMeD]-{3Oxa8azabicyclo(3.2.1)octane}; lactam N-11) | 100 to 500 nM | 0.99 nM
11 | CC[C@H](C)[C@@H]1NC(=O)[C@H](CC)N(C)C(=O)C[C@@H](C(=O)N2C3CCC2COC3)N(C)C(=O)[C@H](C2CCCCC2)N(C)C(=O)C2(CCCC2)NC(=O)[C@@H]2CCCN2C(=O)[C@H](CCc2ccc(C(F)(F)F)c(Cl)c2)NC(=O)CN(C)C(=O)[C@H](CC2CCCCC2)N(C)C(=O)CN(C)C(=O)CN(C)C1=O [Compound 1901] ([NMeAbu]I[Sar][Sar][NMeCha][Sar][hPhe(3-Cl-4-CF3)]P[Ac5c][NMeChg][NMeD]-{3Oxa8azabicyclo(3.2.1)octane}; lactam N-11) | 50 to 100 nM | 0.56 nM
12 | CC[C@H](C)[C@@H]1NC(=O)[C@H](CC)N(C)C(=O)C[C@@H](C(=O)N2CCOCC2)N(C)C(=O)[C@H](C2CCCCC2)N(C)C(=O)C2(CCCC2)NC(=O)[C@@H]2CCCN2C(=O)[C@H](CCc2ccc(C(F)(F)F)c(Cl)c2)NC(=O)CN(C)C(=O)[C@H](Cc2ccc(C)cc2)N(C)C(=O)CN(C)C(=O)CN(C)C1=O [Compound 1904] ([NMeAbu]I[Sar][Sar][NMePhe(4-Me)][Sar][hPhe(3-Cl-4-CF3)]P[Ac5c][NMeChg][NMeD]-Morpholide; lactam N-11) | 20 to 50 nM | 0.57 nM
13 | CC[C@H](C)[C@@H]1NC(=O)[C@H](CC)N(C)C(=O)C[C@@H](C(=O)N2CCCC2)N(C)C(=O)[C@H](C2CCCCC2)N(C)C(=O)C2(CCCC2)NC(=O)[C@@H]2CCCN2C(=O)[C@H](CCc2ccc(C(F)(F)F)c(Cl)c2)NC(=O)CN(C)C(=O)[C@H](Cc2ccc(C)cc2)N(C)C(=O)CN(C)C(=O)CN(C)C1=O [Compound 1905] ([NMeAbu]I[Sar][Sar][NMePhe(4-Me)][Sar][hPhe(3-Cl-4-CF3)]P[Ac5c][NMeChg][NMeD]-Pyrrolidide; lactam N-11) | 20 to 50 nM | 0.33 nM
14 | CC(C)C[C@H]1C(=O)N[C@@H](C2CCC2)C(=O)N(C)CC(=O)N(C)CC(=O)N(C)[C@@H](CC2CCCCC2)C(=O)N(C)CC(=O)N[C@@H](CCc2ccc(C(F)(F)F)c(Cl)c2)C(=O)N2CCC[C@H]2C(=O)NC2(CCCC2)C(=O)N(C)[C@@H](C2CCCCC2)C(=O)N(C)[C@H](C(=O)N2CCOCC2)CC(=O)N1C [Compound 1906] ([NMeL][Gly(cBu)][Sar][Sar][NMeCha][Sar][hPhe(3-Cl-4-CF3)]P[Ac5c][NMeChg][NMeD]-Morpholide; lactam N-11) | 50 to 100 nM | 0.55 nM
15 | CC[C@H](C)[C@@H]1NC(=O)[C@H](CC(C)C)N(C)C(=O)C[C@@H](C(=O)N(C)C)N(C)C(=O)[C@H](C2CCCC2)N(C)C(=O)C2(CCCC2)NC(=O)[C@H](CCC(F)F)N(C)C(=O)[C@H](CCc2ccc(C(F)(F)F)c(Cl)c2)NC(=O)CN(C)C(=O)[C@H](CC2CCCCC2)N(C)C(=O)[C@@H]2CCN2C(=O)[C@H](C)N(C)C1=O [Compound 1907] ([NMeL]I[NMeA][Aze][NMeCha][Sar][hPhe(3-Cl-4-CF3)][NMeNva(5,5-F2)][Ac5c][NMeGly(cPent)][NMeD]-NMe2; lactam N-11) | 20 to 50 nM | 1.3 nM
16 | CC(C)C[C@H]1C(=O)N[C@@H](C(C)C)C(=O)N(C)CC(=O)N(C)CC(=O)N(C)[C@@H](CC2CCCCC2)C(=O)N(C)CC(=O)N[C@@H](CCc2ccc(C(F)(F)F)c(Cl)c2)C(=O)N2CCC[C@H]2C(=O)NC2(CCCC2)C(=O)N(C)[C@@H](C2CCCCC2)C(=O)N(C)[C@H](C(=O)N2CCOCC2)CC(=O)N1C [Compound 1908] ([NMeL]V[Sar][Sar][NMeCha][Sar][hPhe(3-Cl-4-CF3)]P[Ac5c][NMeChg][NMeD]-Morpholide; lactam N-11) | 50 to 100 nM | 0.65 nM
